# Legend:
# P-gp = assay: Substrate activity at p-gp (unknown origin) assessed as efflux ratio of permeability; type: ADME; settings: human, not told
# BCRP (ABCG2) = target: T1, BCRP (ABCG2) (Homo sapiens, UniProt Q9UNQ0); assay: Substrate activity at BCRP (unknown origin) assessed as efflux ratio of permeability; type: ADME; settings: not told
# T1 sequence (Q9UNQ0 whole entry): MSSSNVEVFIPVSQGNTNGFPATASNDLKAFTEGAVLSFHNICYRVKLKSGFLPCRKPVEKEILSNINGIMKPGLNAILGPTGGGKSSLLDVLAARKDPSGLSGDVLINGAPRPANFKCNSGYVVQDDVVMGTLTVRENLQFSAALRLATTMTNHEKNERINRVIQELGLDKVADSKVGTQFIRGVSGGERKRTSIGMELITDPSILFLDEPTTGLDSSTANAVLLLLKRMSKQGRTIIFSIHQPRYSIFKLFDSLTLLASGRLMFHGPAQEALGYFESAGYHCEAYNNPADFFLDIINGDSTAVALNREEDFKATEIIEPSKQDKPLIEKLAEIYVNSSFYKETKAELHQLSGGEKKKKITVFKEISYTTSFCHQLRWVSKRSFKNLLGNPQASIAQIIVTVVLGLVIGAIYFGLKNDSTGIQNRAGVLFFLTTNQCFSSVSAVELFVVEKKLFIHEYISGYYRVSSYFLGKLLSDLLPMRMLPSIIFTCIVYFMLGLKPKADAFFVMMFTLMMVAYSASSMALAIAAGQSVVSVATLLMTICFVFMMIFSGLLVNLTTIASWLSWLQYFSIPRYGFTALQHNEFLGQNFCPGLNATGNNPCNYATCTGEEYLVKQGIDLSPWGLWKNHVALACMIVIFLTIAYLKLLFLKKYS
# Cytochrome P450 2C8 = target: T2, Cytochrome P450 2C8 (Homo sapiens, UniProt P10632); assay: Inhibition of CYP2C8 (unknown origin); type: ADME
# T2 sequence (P10632 whole entry): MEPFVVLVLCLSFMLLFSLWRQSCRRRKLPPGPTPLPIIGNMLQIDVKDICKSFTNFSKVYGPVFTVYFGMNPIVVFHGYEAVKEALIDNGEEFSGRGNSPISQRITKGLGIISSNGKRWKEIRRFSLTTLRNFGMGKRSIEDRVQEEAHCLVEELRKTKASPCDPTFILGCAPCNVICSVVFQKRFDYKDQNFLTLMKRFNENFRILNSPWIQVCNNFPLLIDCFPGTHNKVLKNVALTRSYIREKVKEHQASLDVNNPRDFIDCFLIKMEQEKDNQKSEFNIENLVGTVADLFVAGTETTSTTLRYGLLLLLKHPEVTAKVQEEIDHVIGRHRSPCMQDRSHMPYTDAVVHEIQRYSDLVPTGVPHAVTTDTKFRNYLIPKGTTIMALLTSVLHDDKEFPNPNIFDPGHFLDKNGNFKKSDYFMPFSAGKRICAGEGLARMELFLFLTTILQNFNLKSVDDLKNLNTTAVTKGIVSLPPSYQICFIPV
# Cytochrome P450 2D6 = Cytochrome P450 2D6 (Homo sapiens, UniProt P10635); assay: Inhibition of CYP2D6 (unknown origin); type: ADME
# Cytochrome P450 2D6, sequence (P10635 whole entry): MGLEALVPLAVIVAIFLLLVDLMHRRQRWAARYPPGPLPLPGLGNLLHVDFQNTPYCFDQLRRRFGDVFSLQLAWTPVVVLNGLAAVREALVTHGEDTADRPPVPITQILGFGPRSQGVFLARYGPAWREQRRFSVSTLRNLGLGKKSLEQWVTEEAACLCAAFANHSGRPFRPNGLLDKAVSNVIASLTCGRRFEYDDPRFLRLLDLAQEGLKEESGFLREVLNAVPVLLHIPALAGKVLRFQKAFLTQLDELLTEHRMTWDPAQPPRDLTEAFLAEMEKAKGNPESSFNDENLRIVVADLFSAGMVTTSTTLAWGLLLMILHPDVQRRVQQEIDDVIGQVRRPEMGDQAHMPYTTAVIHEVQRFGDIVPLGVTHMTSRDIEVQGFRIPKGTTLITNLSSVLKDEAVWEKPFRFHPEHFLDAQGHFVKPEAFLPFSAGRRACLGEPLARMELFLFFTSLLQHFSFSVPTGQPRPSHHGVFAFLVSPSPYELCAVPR
# Cytochrome P450 3A4 = Cytochrome P450 3A4 (Homo sapiens, UniProt P08684); assay: Inhibition of CYP3A4 (unknown origin); type: ADME
# Cytochrome P450 3A4, sequence (P08684 whole entry): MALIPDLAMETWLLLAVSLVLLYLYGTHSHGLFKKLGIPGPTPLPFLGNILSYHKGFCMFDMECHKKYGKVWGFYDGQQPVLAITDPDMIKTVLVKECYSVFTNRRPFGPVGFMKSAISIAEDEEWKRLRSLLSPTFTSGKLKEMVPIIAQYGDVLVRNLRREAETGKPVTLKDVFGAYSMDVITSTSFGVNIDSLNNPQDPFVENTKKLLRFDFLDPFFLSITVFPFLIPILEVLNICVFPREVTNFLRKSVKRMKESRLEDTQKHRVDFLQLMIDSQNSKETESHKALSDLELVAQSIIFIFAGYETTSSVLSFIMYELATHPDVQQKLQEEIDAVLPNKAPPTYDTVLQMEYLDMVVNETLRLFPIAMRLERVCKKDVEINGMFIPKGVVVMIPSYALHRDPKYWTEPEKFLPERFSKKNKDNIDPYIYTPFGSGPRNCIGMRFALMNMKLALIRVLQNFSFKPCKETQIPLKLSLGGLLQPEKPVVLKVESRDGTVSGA
# [1] = Half life in dog at 0.363 mg/kg, iv and 0.737 mg/kg, po; type: ADME, organism-based, Canis lupus familiaris; settings: in vivo
# [2] = Volume of distribution at steady state in dog at 0.363 mg/kg, iv and 0.737 mg/kg, po; type: ADME, organism-based, Canis lupus familiaris; settings: in vivo, read-out: Vdss
# [3] = Oral bioavailability in dog at 0.737 mg/kg; type: ADME, organism-based, Canis lupus familiaris; settings: in vivo
# [4] = Drug metabolism in human liver microsomes assessed as monooxidation at phenyl and pyridine moieties; type: ADME
# [5] = Drug metabolism in rat liver microsomes assessed as monooxidation at phenyl and pyridine moieties; type: ADME
# [6] = Drug metabolism in human hepatocytes assessed as monooxidation and glucuronidation; type: ADME, cell-based, Hepatocyte
# [7] = Drug metabolism in rat hepatocytes assessed as monooxidation and glucuronidation; type: ADME, cell-based, Hepatocyte
# [8] = Drug metabolism in rat hepatocytes assessed as glucuronidation in presence of glutathione; type: ADME, cell-based, Hepatocyte
# [9] = Drug metabolism in rat hepatocytes assessed as glucuronidation in presence of glutathione and water; type: ADME, cell-based, Hepatocyte
# Rattus norvegicus [10] = assay: Toxicity in Wistar Han rat assessed as increase in liver weight at >= 30 mg/kg/day, po administered for 14 days; type: organism-based; settings: in vivo, 336 h
# Rattus norvegicus [11] = assay: Toxicity in Wistar Han rat assessed as increase in liver to body weight ratio at >= 30 mg/kg/day, po administered for 14 days; type: organism-based; settings: in vivo, 336 h
# Rattus norvegicus [12] = assay: Toxicity in Wistar Han rat assessed as centrilobular hepatocyte hypertrophy at 100 mg/kg/day, po administered for 14 days; type: organism-based; settings: hepatocytes, 336 h
# [13] = Unbound Cmax in Wistar Han rat at 10 mg/kg, po […] measured on day 14; type: ADME, organism-based; settings: in vivo
# [14] = Toxicity in dog assessed as increase in body temperature at 10 mg/kg, po administered as single dose; type: organism-based, Canis lupus familiaris; settings: in vivo
# [15] = Toxicity in dog assessed as increase in body temperature at 30 mg/kg, po administered as single dose; type: organism-based, Canis lupus familiaris; settings: in vivo
# [16] = Toxicity in dog assessed as emesis at 30 mg/kg, po administered as single dose measured 30 mins post dose; type: organism-based, Canis lupus familiaris; settings: in vivo, 0.5 h
# [17] = Toxicity in dog assessed as appearance of red mucous membranes of the gum at 30 mg/kg, po administered as single dose; type: organism-based, Canis lupus familiaris; settings: in vivo
# [18] = Toxicity in dog assessed as increase in heart rate at 30 mg/kg, po administered as single dose; type: organism-based, Canis lupus familiaris; settings: in vivo
# [19] = Unbound Cmax in dog at 10 mg/kg, po administered as single dose; type: ADME, organism-based, Canis lupus familiaris; settings: in vivo
# [20] = Plasma clearance in dog at 1 mg/kg, iv and 3 mg/kg, po; type: ADME, organism-based, Canis lupus familiaris
# [21] = Half life in dog at 1 mg/kg, iv and 3 mg/kg, po; type: ADME, organism-based, Canis lupus familiaris; settings: in vivo
# [22] = Volume of distribution at steady state in dog at 1 mg/kg, iv and 3 mg/kg, po; type: ADME, organism-based, Canis lupus familiaris; settings: in vivo, read-out: Vdss
# [23] = Oral bioavailability in dog at 3 mg/kg; type: ADME, organism-based, Canis lupus familiaris; settings: in vivo
# Rattus norvegicus [24] = assay: Toxicity in Wistar Han rat assessed as centrilobular hepatocellular hypertrophy at 100 mg/kg/day, po administered for 14 days; type: organism-based; settings: in vivo, 336 h
# Rattus norvegicus [25] = assay: Toxicity in Wistar Han rat assessed as moribundity at 300 mg/kg, po administered as single dose; type: organism-based; settings: in vivo
# Rattus norvegicus [26] = assay: Toxicity in Wistar Han rat assessed as mortality at 300 mg/kg, po administered as single dose; type: organism-based; settings: in vivo
smiles,measurement,setting,value
O=S(=O)(Nc1ccc(C(F)(F)F)nc1)c1ccccc1C(F)(F)F,efflux ratio,P-gp,1.1
same,efflux ratio,BCRP (ABCG2),3.3
same,IC50,Cytochrome P450 2C8,> 30 µM
same,IC50,Cytochrome P450 2D6,> 30 µM
same,IC50,Cytochrome P450 3A4,> 30 µM
same,half-life,[1],103 h
same,Vd,[2],0.12 L/kg
same,bioavailability,[3],104%
same,Drug metabolism,[4],Metabolite_Detected
same,Drug metabolism,[5],Metabolite_Detected
same,Drug metabolism,[6],Metabolite_Detected
same,Drug metabolism,[7],Metabolite_Detected
same,Drug metabolism,[8],Metabolite_Detected
same,Drug metabolism,[9],Metabolite_Detected
same,Activity,Rattus norvegicus [10],Non-Toxic
same,Activity,Rattus norvegicus [11],Non-Toxic
same,Activity,Rattus norvegicus [12],Non-Toxic
same,fCmax,[13],530 nM
same,deltaT,[14],< 0.4 °C
same,deltaT,[15],> 1.1 °C
same,Activity,[16],Toxic
same,Activity,[17],Toxic
same,Activity,[18],Toxic
same,fCmax,[19],1498 nM
O=S(=O)(Nc1cncc(C(F)(F)F)c1)c1ccccc1C(F)(F)F,clearance,[20],1 mL/min/kg
same,half-life,[21],2.4 h
same,Vd,[22],0.18 L/kg
same,bioavailability,[23],145%
same,Activity,Rattus norvegicus [24],Non-Toxic
same,Activity,Rattus norvegicus [25],Toxic
same,Activity,Rattus norvegicus [26],Toxic

# Reference: ChEMBL document CHEMBL3853265 (Medchemcomm, 2016)
